Results reported in patent publication US7592345B2, “Piperazine and [1,4]diazepan derivatives as NK antagonists” (Hoffmann-La Roche Inc., priority 2007, dated 2009).

target: T1, recombinant human NK3 receptor (Homo sapiens, UniProt P29371); test: [3H]SR142801 competition binding assay; conditions: [3H]SR142801, membranes from HEK293 cells transiently expressing recombinant human NK3 receptor; read-out: hNK3 Ki
T1 construct: expressed in transfected cells; host or cells: HEK293 cells (transient expression), membranes
T1 sequence (P29371 1-465): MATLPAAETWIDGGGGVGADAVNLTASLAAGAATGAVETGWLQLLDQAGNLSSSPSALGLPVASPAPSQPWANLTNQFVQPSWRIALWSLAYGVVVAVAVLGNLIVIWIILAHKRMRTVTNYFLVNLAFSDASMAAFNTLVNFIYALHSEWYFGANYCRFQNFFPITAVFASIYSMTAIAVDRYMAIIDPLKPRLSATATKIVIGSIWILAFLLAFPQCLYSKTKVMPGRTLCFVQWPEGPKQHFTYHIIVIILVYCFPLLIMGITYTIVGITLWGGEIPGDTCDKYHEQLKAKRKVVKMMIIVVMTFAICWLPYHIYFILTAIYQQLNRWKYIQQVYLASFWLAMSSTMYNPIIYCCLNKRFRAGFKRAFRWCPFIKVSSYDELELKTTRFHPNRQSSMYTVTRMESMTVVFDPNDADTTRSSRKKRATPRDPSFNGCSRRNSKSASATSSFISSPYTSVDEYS
In short: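 Membranes from HEK293 cells transiently expressing human NK3 were incubated 75 min at RT with [3H]SR142801 at its KD and inhibitor (0.0003-10 μM) in Tris-HCl pH 7.4/MnCl2/phosphoramidon/BSA. Nonspecific binding used 10 μM SB222200. Ki from Hill-fitted IC50 via Cheng-Prusoff, duplicate determinations.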

| SMILES | Ki [nM] |
| --- | --- |
| C[C@H]1CN(CC[C@@](C)(C(=O)NCc2ccc(Cl)c(Cl)c2)c2ccc(Cl)c(Cl)c2)CCN1S(C)(=O)=O (single isomer, unassigned) [Example 94, (R or S)—N-(3,4-Dichloro-benzyl)-2-(3,4-dichloro-phenyl)-4-((R)-4-methanesulfonyl-3-methyl-piperazin-1-yl)-2-methyl-butyramide] | 112 |
| C[C@@H]1CN(CCC(C)(C(=O)N(C)Cc2ccccc2Cl)c2ccc(Cl)c(Cl)c2)CCN1S(C)(=O)=O (stereo partly drawn) [Example 49, N-(2-Chloro-benzyl)-2-(3,4-dichloro-phenyl)-4-((R)-4-methanesulfonyl-3-methyl-piperazin-1-yl)-2,N-dimethyl-butyramide] | 88 |
| C[C@@H]1CN(CCC(C)(C(=O)NCc2cc(F)ccc2C(F)(F)F)c2ccc(Cl)c(Cl)c2)CCN1S(C)(=O)=O (stereo partly drawn) [Example 44, 2-(3,4-Dichloro-phenyl)-N-(5-fluoro-2-trifluoromethyl-benzyl)-4-((R)-4-methanesulfonyl-3-methyl-piperazin-1-yl)-2-methyl-butyramide] | 212 |
| C[C@H]1CN(CCC(C)(C(=O)NCc2ccc(Cl)c(F)c2)c2ccc(Cl)c(Cl)c2)CCN1S(C)(=O)=O (stereo partly drawn) [Example 82, N-(4-Chloro-3-fluoro-benzyl)-2-(3,4-dichloro-phenyl)-4-((S)-4-methanesulfonyl-3-methyl-piperazin-1-yl)-2-methyl-butyramide] | 94.2 |
| CN(Cc1ccc(Cl)cc1)C(=O)C(CCN1CCN(S(C)(=O)=O)CC1)c1ccc(Cl)c(Cl)c1 (stereo not shown) [Example 1, N-(4-Chloro-benzyl)-2-(3,4-dichloro-phenyl)-4-(4-methanesulfonyl-piperazin-1-yl)-N-methyl-butyramide] | 171 |
| CC(CCN1CCCN(S(C)(=O)=O)CC1)(C(=O)NCc1ccc(C#N)cc1)c1ccc(Cl)c(Cl)c1 (stereo not shown) [Example 124, N-(4-Cyano-benzyl)-2-(3,4-dichloro-phenyl)-4-(4-methanesulfonyl-[1,4]diazepan-1-yl)-2-methyl-butyramide] | 107 |
| CN(Cc1cccc(Cl)c1)C(=O)C(C)(CCN1CCN(S(C)(=O)=O)CC1)c1ccc(Cl)c(Cl)c1 (stereo not shown) [Example 10, N-(3-Chloro-benzyl)-2-(3,4-dichloro-phenyl)-4-(4-methanesulfonyl-piperazin-1-yl)-2,N-dimethyl-butyramide] | 145 |
| CN(Cc1cccc(F)c1)C(=O)C(C)(CCN1CCN(S(C)(=O)=O)CC1)c1ccc(Cl)c(Cl)c1 (stereo not shown) [Example 24, 2-(3,4-Dichloro-phenyl)-N-(3-fluoro-benzyl)-4-(4-methanesulfonyl-piperazin-1-yl)-2,N-dimethyl-butyramide] | 224 |
| CN(C)c1ccc(CNC(=O)C(C)(CCN2CCCN(S(C)(=O)=O)CC2)c2ccc(Cl)c(Cl)c2)cc1 (stereo not shown) [Example 110, 2-(3,4-Dichloro-phenyl)-N-(4-dimethylamino-benzyl)-4-(4-methanesulfonyl-[1,4]diazepan-1-yl)-2-methyl-butyramide] | 291 |
| CN(Cc1ccc(Cl)cc1)C(=O)C(C)(CCN1CCCN(S(C)(=O)=O)CC1)c1ccc(Cl)c(Cl)c1 (stereo not shown) [Example 97, N-(4-Chloro-benzyl)-2-(3,4-dichloro-phenyl)-4-(4-methanesulfonyl-[1,4]diazepan-1-yl)-2,N-dimethyl-butyramide] | 29.9 |
| C[C@@H]1CN(CCC(C)(C(=O)NCc2ccc(N(C)C)cc2)c2ccc(Cl)c(Cl)c2)CCN1S(C)(=O)=O (stereo partly drawn) [Example 37, 2-(3,4-Dichloro-phenyl)-N-(4-dimethylamino-benzyl)-4-((R)-4-methanesulfonyl-3-methyl-piperazin-1-yl)-2-methyl-butyramide] | 485 |
| COc1ccc(CN(C)C(=O)C(CCN2CCN(S(C)(=O)=O)CC2)c2ccc(Cl)c(Cl)c2)cc1F (stereo not shown) [Example 6, 2-(3,4-Dichloro-phenyl)-N-(3-fluoro-4-methoxy-benzyl)-4-(4-methanesulfonyl-piperazin-1-yl)-N-methyl-butyramide] | 690 |
| C[C@@H]1CN(CCC(C)(C(=O)NCc2ccc(Cl)c(Cl)c2)c2ccc(Cl)c(Cl)c2)CCN1S(C)(=O)=O (stereo partly drawn) [Example 42, N-(3,4-Dichloro-benzyl)-2-(3,4-dichloro-phenyl)-4-((R)-4-methanesulfonyl-3-methyl-piperazin-1-yl)-2-methyl-butyramide] | 5.7 |
| C[C@@H]1CN(CCC(C)(C(=O)N(C)Cc2ccc(F)c(C(F)(F)F)c2)c2ccc(Cl)c(Cl)c2)CCN1S(C)(=O)=O (stereo partly drawn) [Example 33, 2-(3,4-Dichloro-phenyl)-N-(4-fluoro-3-trifluoromethyl-benzyl)-4-((R)-4-methanesulfonyl-3-methyl-piperazin-1-yl)-2,N-dimethyl-butyramide] | 15.8 |
| C[C@@H]1CN(CCC(C)(C(=O)NCc2ccc(C(F)(F)F)nc2)c2ccc(Cl)c(Cl)c2)CCN1S(C)(=O)=O (stereo partly drawn) [Example 92, 2-(3,4-Dichloro-phenyl)-4-((R)-4-methanesulfonyl-3-methyl-piperazin-1-yl)-2-methyl-N-(6-trifluoromethyl-pyridin-3-ylmethyl)-butyramide] | 582 |
| C[C@H]1CN(CCC(C)(C(=O)N(C)Cc2ccc(F)c(C(F)(F)F)c2)c2ccc(Cl)c(Cl)c2)CCN1S(C)(=O)=O (stereo partly drawn) [Example 64, 2-(3,4-Dichloro-phenyl)-N-(4-fluoro-3-trifluoromethyl-benzyl)-4-((S)-4-methanesulfonyl-3-methyl-piperazin-1-yl)-2,N-dimethyl-butyramide] | 16.8 |
| C[C@@H]1CN(CCC(C)(C(=O)NCc2ccc(C(F)(F)F)cc2)c2ccc(Cl)c(Cl)c2)CCN1S(C)(=O)=O (stereo partly drawn) [Example 45, 2-(3,4-Dichloro-phenyl)-4-((R)-4-methanesulfonyl-3-methyl-piperazin-1-yl)-2-methyl-N-(4-trifluoromethyl-benzyl)-butyramide] | 33.3 |
| CN(Cc1cccc(C(F)(F)F)c1)C(=O)C(C)(CCN1CCCN(S(C)(=O)=O)CC1)c1ccc(Cl)c(Cl)c1 (stereo not shown) [Example 101, 2-(3,4-Dichloro-phenyl)-4-(4-methanesulfonyl-[1,4]diazepan-1-yl)-2,N-dimethyl-N-(3-trifluoromethyl-benzyl)-butyramide] | 18.4 |
| CC(CCN1CCN(S(C)(=O)=O)CC1)(C(=O)N[C@H](CO)c1ccc(F)cc1)c1ccc(Cl)c(Cl)c1 (stereo partly drawn) [Example 133, 2-(3,4-Dichloro-phenyl)-N-[(S)-1-(4-fluoro-phenyl)-2-hydroxy-ethyl]-4-(4-methanesulfonyl-piperazin-1-yl)-2-methyl-butyramide] | 397 |
| C[C@@H]1CN(CCC(C)(C(=O)NCc2ccc(OC(F)(F)F)cc2)c2ccc(Cl)c(Cl)c2)CCN1S(C)(=O)=O (stereo partly drawn) [Example 53, 2-(3,4-Dichloro-phenyl)-4-((R)-4-methanesulfonyl-3-methyl-piperazin-1-yl)-2-methyl-N-(4-trifluoromethoxy-benzyl)-butyramide] | 22.8 |
| C[C@H]1CN(CCC(C)(C(=O)NCc2cc(C(F)(F)F)cc(C(F)(F)F)c2)c2ccc(Cl)c(Cl)c2)CCN1S(C)(=O)=O (stereo partly drawn) [Example 65, N-(3,5-Bis-trifluoromethyl-benzyl)-2-(3,4-dichloro-phenyl)-4-((S)-4-methanesulfonyl-3-methyl-piperazin-1-yl)-2-methyl-butyramide] | 84.6 |
| CN(Cc1ccc(-c2ccncc2)cc1)C(=O)C(C)(CCN1CCN(S(C)(=O)=O)CC1)c1ccc(Cl)c(Cl)c1 (stereo not shown) [Example 23, 2-(3,4-Dichloro-phenyl)-4-(4-methanesulfonyl-piperazin-1-yl)-2,N-dimethyl-N-(4-pyridin-4-yl-benzyl)-butyramide] | 201 |
